According to patent US20260117173A1, “METHOD FOR MESENCHYMAL PHENOTYPE REVERSION IN PRIMARY HUMAN CORNEAL ENDOTHELIAL CELLS” (UNIVERSITÀ DEGLI STUDI DI MODENA E REGGIO EMILIA, priority 2022, published 2026):

Key:
[1] = test system: primary human corneal endothelial cells (HCEnCs); test: HCEnCs count upon detachment at confluency for progressive passages; format: cell-based; details: CHIR 0.1-9 μM vs relative untreated control
Experimental: […] were cultured between 31 and 39° C. in 4-10% CO2, changing the growth medium every other day. The growth medium can be OptiMEM-I, MEM, F12, Human Endothelial SFM, 2-10% HyClone fetal bovine serum (FBS), 2-10 ng/ml epidermal growth factor (EGF), 5-50 μg/mL ascorbic acid, 40-300 mg/L calcium chloride, 0.01-0.2% chondroitin sulphate, and penicillin/streptomycin. Upon confluency, […] were rinsed in DPBS and passaged at a ratio of 1:2 or 1:3 with Trypsin or other proteolytic enzymes for 10-30 min at 31-39° C. in 4-10% CO2. Sub-confluent cultures were harvested approximately 1 day after plating.

[2] = test system: primary human corneal endothelial cells (HCEnCs); test: Cell cycle analysis by FACS (propidium iodide) of sub-confluent HCEnCs; format: cell-based; details: sub-confluent HCEnCs P5-P6-P8, CHIR 0.1-9 μM vs untreated
Experimental: The cell cycle was studied by staining sub-confluent cultures of […] with Propidium Iodide (PI; Sigma-Aldrich). […] from cell culture were washed with DPBS and incubated for 1 h at 4° C. in the dark with 250 μL of a PBS solution composed by PI 50 μg/mL, Triton X-100 (Bio-Rad, USA) at 0.1%. Cells were then analysed using BD FACSCanto II (BD BIOSCIENCES; San Jose, CA USA). For each sample, 20,000 events were considered for the analysis to ensure statistical relevance and results were analysed with a ModFit 3.0 software.

[3] = test system: primary human corneal endothelial cells (HCEnCs); test: Immunofluorescence of ki67 in sub-confluent HCEnCs; format: cell-based
Experimental: Immunofluorescence staining was performed on primary cultured […] after fixation in 3% PFA 15 min at room temperature (RT). Triton X-100 used at 1% for 10 min at RT allowed cell permeabilization and a solution of bovine serum albumin (BSA) 2%, FBS 2%, Triton X-100 at 0.01% in PBS was used for 30 min at 37° C. to block the non-specific binding sites. Primary and secondary antibodies were incubated for 1 h at 37° C. while nuclei were counterstained with DAPI at RT for 5 minutes before mounting the glass coverslips using amounting medium such as DAKO. Primary antibodies used herein are listed in Table 2 while secondary antibodies used are: Alexa Fluor 488 anti-rabbit, 1:2,000, and Alexa Fluor 568 anti-mouse, 1:1,000 (Thermo Fisher Scientific). Images were obtained with a confocal microscope (LSM900 Airyscan-Carl Zeiss).

[4] = test system: primary human corneal endothelial cells (HCEnCs); test: Phase-contrast morphology of primary HCEnCs cultures treated with CHIR; format: cell-based
Experimental: Human corneas tissues (obtained after informed consent to the eye bank and the use was approved by the ethical committee) were preserved in media for tissue preservation as for example Eusol, OptiSOL or others and used within approximately 15 days from death; a list of detail for some corneas used and relative experiments is shown in Table 1. HCEnCs were isolated through Descemet's stripping and digestion with Collagenase A (Roche) for 1-16 h at 30-39° C. After 5-10 minutes in Trypsin or other proteolytic enzymes at 37° C., HCEnCs were pelleted at 1,200 rpm for 3 min and plated in FNC Coating mix treated wells.
(§1) HCEnCs were cultured between 31 and 39° C. in 4-10% CO2, changing the growth medium every other day. The growth medium can be OptiMEM-I, MEM, F12, Human Endothelial SFM, 2-10% HyClone fetal bovine serum (FBS), 2-10 ng/ml epidermal growth factor (EGF), 5-50 μg/mL ascorbic acid, 40-300 mg/L calcium chloride, 0.01-0.2% chondroitin sulphate, and penicillin/streptomycin. Upon confluency, HCEnCs were rinsed in DPBS and passaged at a ratio of 1:2 or 1:3 with Trypsin or other proteolytic enzymes for 10-30 min at 31-39° C. in 4-10% CO2. Sub-confluent cultures were harvested approximately 1 day after plating.
(§2) Before or whenever primary HCEnCs encountered a morphological variation, the GSK inhibitor CHIR99021 (also defined as 6-[[2-[[4-(2,4-Dichlorophenyl)-5-(5-methyl-1H-imidazol-2-yl)-2-pyrimidinyl]amino]ethyl]amino]-3-pyridinecarbonitrile) was prepared and added to the culture media at a concentration range of 0.1-10 μM. Multiple solvents and methods have been used to dissolve CHIR stock solution. Ultrasonic were applied for CHIR dilutions in sodium carboxymethyl cellulose (CMC-Na) in saline water and 20% Sulfobutylether-β-Cyclodextrin (SBE-β-CD), adjusted to pH 3-6, with 1 N acetic acid. CHIR can be also diluted in dimethyl sulfoxide (DMSO) at 70-100% (v/v), with a solution composed of 10% DMSO 40% PEG300 5% Tween-80 in saline water or composed of 10% DMSO and 20% SBE-β-CD in saline water. Once obtained a clear solution, the stock solution was aliquoted and stored at-20/−80° C. until use.

[5] = test system: primary human corneal endothelial cells (HCEnCs); test: Immunofluorescence of ZO-1 and α-SMA markers in primary HCEnCs; format: cell-based
Experimental: as §1, §2
Immunofluorescence staining was performed on primary cultured HCEnCs after fixation in 3% PFA 15 min at room temperature (RT). Triton X-100 used at 1% for 10 min at RT allowed cell permeabilization and a solution of bovine serum albumin (BSA) 2%, FBS 2%, Triton X-100 at 0.01% in PBS was used for 30 min at 37° C. to block the non-specific binding sites. Primary and secondary antibodies were incubated for 1 h at 37° C. while nuclei were counterstained with DAPI at RT for 5 minutes before mounting the glass coverslips using amounting medium such as DAKO. Primary antibodies used herein are listed in Table 2 while secondary antibodies used are: Alexa Fluor 488 anti-rabbit, 1:2,000, and Alexa Fluor 568 anti-mouse, 1:1,000 (Thermo Fisher Scientific). Images were obtained with a confocal microscope (LSM900 Airyscan—Carl Zeiss).

[6] = test system: corneal endothelial derived cell line, B4G12; details: B4G12 cell line (Wang et al., 2022); cited from earlier work
[7] = P1, CHIR at 0.1-9 μM, vs untreated (ctr)
[8] = P1, CHIR at a concentration >10 μM

## Cc1cnc(-c2cnc(NCCNc3ccc(C#N)cn3)nc2-c2ccc(Cl)cc2Cl)[nH]1 [CHIR, 6-[[2-[[4-(2,4-Dichlorophenyl)-5-(5-methyl-1H-imidazol-2-yl)-2-pyrimidinyl]amino]ethyl]amino]-3-pyridinecarbonitrile]
[1]
  number of HCEnCs at confluency for each passage: constantly lower
[2]
  percentage of cells at G2/M: reduced the percentage of cells at G2/M
  percentage of cells in G0/G1 phase of cell cycle: enhanced the percentage of cells in G0/G1 phase
[3]; primary HCEnCs, evaluated with different assays (FACS, count, ki67)
  cell proliferation rate: does not enhance cell proliferation rate
[3]; sub-confluent HCEnCs P5, Strain 3, CHIR 0.1-9 μM vs untreated
  ki67 protein expressing cells: equal
[3]; sub-confluent HCEnCs P5, Strain 4, p<0.05, CHIR 0.1-9 μM vs untreated
  ki67 protein expressing cells: significant reduction
[4]; CHIR 0.1-9 μM added at a later passage, P6 confluence
  reversion of elongated morphology: able to reverse the elongated morphology
[4]; CHIR 0.1-9 μM applied to HCEnCs already elongated in culture (P3)
  reversion of cell phenotype / morphology: restoring a polygonal morphology
[4]; CHIR 0.1-9 μM, progressive passages, at least up to P8
  reversion of elongated phenotype: reversing the elongated phenotype
[4]; P1, CHIR at 0.1-9 μM, vs untreated HCEnCs (ctr)
  HCEnCs morphology: restored the polygonal morphology
[4]; P1, CHIR at concentrations >10 μM, vs untreated cells
  HCEnCs morphology: exacerbated elongated morphology
[4]; P3, CHIR 0.1-9 μM vs untreated (ctr)
  HCEnCs morphology: untreated cells (ctr) appeared more elongated than CHIR treated HCEnCs
[5]; P1, CHIR 0.1-9 μM, untreated approx. 40%
  percentage of α-SMA expressing cells: ~17%
[5]; [7]
  ZO-1 expression: restored sealed ZO-1 pattern of expression
  α-SMA expression: reduced levels of α-SMA
[5]; [8]
  ZO-1 expression: disappearance of ZO-1 expression
  endothelial to mesenchymal transition (EnMT): accelerated the process of endothelial to mesenchymal transition
  α-SMA expression: highly expressed in every cell
[5]; P3, CHIR 0.1-9 μM
  ZO-1 expression: restores ZO-1 pattern of tight junctions
  α-SMA expression: drastically reduces expression of α-SMA
[6]
  cell proliferation: concomitant enhancement in cell proliferation
  mesenchymal conversion: prevent mesenchymal conversion (but not to reverse it)
